Measurements from patent US9340559B2, “Proteasome inhibitor delanzomib for use in the treatment of lupus” (Cephalon, Inc., priority 2011, dated 2016).

How the values were obtained:
Format in all cases: in vivo, mouse
MRL/lpr mice [1] = test: Antibody secreting B-cell Elispot (anti-Smith Ag, anti-dsDNA, anti-chromatin ASC), spleens of MRL/lpr mice; details: G6: 1.5 mg/kg ip, 3× wk
Procedure: (§1) FIG. 9 depicts frequency of anti-Smith antigen and anti-dsDNA antibody secreting cells in the spleens of MRL/lpr mice. MRL/lpr treated mice spleens were processed for splenocytes for ex vivo Elispot assays. Elispot wells were coated with 10 μg/mL of smith antigen, dsDNA or ovalbumin protein. Fresh, whole splenocytes were added to each well at 500,000 cells per well in cell culture medium. Cells were incubated overnight at 37° C. Developed wells provided spots that were counted as frequency of ASCs per million splenocytes.
as §1, with “10” for “9”, “depicts the” for “depicts”, “anti-chromatin” for “anti-Smith antigen and anti-dsDNA”, “boiled chicken chromatin” for “smith antigen, dsDNA”, “[…]” for “500,000”
B-cell Elispot components are ordered from MabTech (Nacka Strand, Sweden) and nitrocellulose IP filter plates are ordered from Millipore (Billerica, Mass.). Elispot wells are coated with either purified bovine thymus dsDNA (Sigma), purified bovine Smith antigen (GenWay) or boiled filtered purified chicken chromatin from lysed chicken red blood cells (Rockland, Gilbertsville, Pa.) at 10 μg/mL. Spleens are processed using glass homogenization, filtered through a 60 μm sterile cell strainer and red blood cells (RBCs) lysed using BioLegend (San Diego, Calif.) lysis buffer. Processed splenocytes are added to each well in culture medium. To avoid skewing of true ex vivo frequencies of antibody secreting cell types (ASCs), cells are not stimulated with a polyclonal mitogen like LPS, but rather incubated in media alone to allow monitoring of genuine ex vivo antibody release. Anti-mouse pan-IgG is used as a positive control for total IgG producing ASCs and is used to normalize results. Frequencies for each antigen are identified in an initial test phase for each model. For chromatin and total IgG only, 30,000 splenocytes are added to each well; for Smith antigen and dsDNA, 500,000 cells are added to each well. Different numbers of splenocytes are added for different antigens due to saturation limits of spot frequencies per well. These limits are previously established. B-cell Elispots are incubated overnight at 37° C. To develop each assay, secondary antibody is added to each well, incubated, washed and alkaline phosphatase strepavidin is used as the conjugate; substrate used is BCIP-NBT. Plates are developed until spots are visible. All Elispot analyses are performed using an Immunospot C.T.L. scanner and Biospot software (Cellular Technology Ltd., Shaker Heights, Ohio). Results are shown as values from which media and cells only wells are subtracted. Some values are negative due to high background.

MRL/lpr mice [2] = test: Antinuclear antibody (ANA) ELISA (anti-chromatin, anti-Smith Ag, anti-dsDNA IgG), serum of MRL/lpr mice; details: G6: 1.5 mg/kg ip, 3× wk
Excerpt: For all ANA ELISA assays, values below the limit of detection set by the lowest point along the standard or set by the manufacturer are considered out of range and are not estimated, but assumed the lowest point along the standard curve for that particular assay.

NZM mice [3] = test: Antinuclear antibody (ANA) ELISA (anti-chromatin, anti-Smith Ag, anti-dsDNA), serum of NZM mice (Example 2); details: G5 1.5 mg/kg ip, 3× wk
NZM mice [4] = system: NZM mice
NZM mice [5] = test: Collagen type-I cross-linker (CTx) bone resorption biomarker ELISA, serum of NZM mice
Procedure: Assay is performed as instructed by the manufacturer. Briefly, biotinylated ratlaps antigen is first added in each well of a 96-well ELISA plate. This plate is covered and incubated for 30 minutes at RT. Plate is washed five times with washing solution and incubated with standards or unknown samples in appropriate wells followed by primary Ab. Incubate overnight for 18 hours at 4° C. followed by washing with buffer. Secondary incubation includes a peroxidase conjugated goat anti-rabbit IgG added to each well and incubation at RT for 1 hour. Incubation with chromogenic substrate solution for 15 minutes at RT in the dark develops the plate for analysis. Stopping solution halts the reaction, absorbance is measured within 2 hours at 450 nm.

C[C@@H]1C[C@H]2[C@@H]3CCC4=CC(=O)C=C[C@]4(C)[C@@]3(F)[C@@H](O)C[C@]2(C)[C@@]1(O)C(=O)CO [dexamethasone, Dexamethasone, reference compound]
ASC EOS Smith Ag, percent change vs vehicle (MRL/lpr mice [1]): +40% | ASC EOS chromatin, percent change vs vehicle (MRL/lpr mice [1]): −22% | ASC EOS dsDNA, percent change vs vehicle (MRL/lpr mice [1]): +129% | ANA AUC Smith Ag, percent change vs vehicle (MRL/lpr mice [2]): −45% | ANA AUC chromatin, percent change vs vehicle (MRL/lpr mice [2]): −47% | ANA AUC dsDNA, percent change vs vehicle (MRL/lpr mice [2]): −59% | ANA Smith Ag AUC, percent change vs vehicle (NZM mice [3]): −56% | ANA chromatin AUC, percent change vs vehicle (NZM mice [3]): −8% | ANA dsDNA AUC, percent change vs vehicle (NZM mice [3]): −19% | Cytokine IL-12 AUC, percent change vs vehicle (NZM mice [4]; G5 1.5 mg/kg ip, 3× wk): −48% | Cytokine IL-13 AUC, percent change vs vehicle (NZM mice [4]; G5 1.5 mg/kg ip, 3× wk): −56% | Cytokine IL-17A AUC, percent change vs vehicle (NZM mice [4]; G5 1.5 mg/kg ip, 3× wk): −55% | Cytokine IP-10 AUC, percent change vs vehicle (NZM mice [4]; G5 1.5 mg/kg ip, 3× wk): −37% | Cytokine MIG AUC, percent change vs vehicle (NZM mice [4]; G5 1.5 mg/kg ip, 3× wk): −68% | Cytokine TNFα AUC, percent change vs vehicle (NZM mice [4]; G5 1.5 mg/kg ip, 3× wk): 79% | p, serum IL-12p40/p70 concentration vs G5 Bortezomib 0.3 mg/kg 1× wk ip (NZM mice [4]; G8 1.5 mg/kg 3× wk ip): NS (NS = not significant (p > 0.05)) | p, serum IL-12p40/p70 concentration vs G6 Bortezomib 0.3 mg/kg 2× wk ip (NZM mice [4]; G8 1.5 mg/kg 3× wk ip): NS (NS = not significant (p > 0.05)) | p, serum IL-12p40/p70 concentration vs G7 CTX 50 mg/kg 1× wk ip (NZM mice [4]; G8 1.5 mg/kg 3× wk ip): NS (NS = not significant (p > 0.05)) | p, serum IL-12p40/p70 concentration vs G9 Vehicle 1× wk ip (NZM mice [4]; G8 1.5 mg/kg 3× wk ip): NS (NS = not significant (p > 0.05)) | p, serum IL-13 concentration vs G5 Bortezomib 0.3 mg/kg 1× wk ip (NZM mice [4]; G8 1.5 mg/kg 3× wk ip): NS (NS = not significant (p > 0.05)) | p, serum IL-13 concentration vs G6 Bortezomib 0.3 mg/kg 2× wk ip (NZM mice [4]; G8 1.5 mg/kg 3× wk ip): NS (NS = not significant (p > 0.05)) | p, serum IL-13 concentration vs G7 CTX 50 mg/kg 1× wk ip (NZM mice [4]; G8 1.5 mg/kg 3× wk ip): p < 0.001 | p, serum IL-13 concentration vs G9 Vehicle 1× wk ip (NZM mice [4]; G8 1.5 mg/kg 3× wk ip): NS (NS = not significant (p > 0.05)) | p, serum IL-17A concentration vs G5 Bortezomib 0.3 mg/kg 1× wk ip (NZM mice [4]; G8 1.5 mg/kg 3× wk ip): NS (NS = not significant (p > 0.05)) | p, serum IL-17A concentration vs G6 Bortezomib 0.3 mg/kg 2× wk ip (NZM mice [4]; G8 1.5 mg/kg 3× wk ip): NS (NS = not significant (p > 0.05)) | p, serum IL-17A concentration vs G7 CTX 50 mg/kg 1× wk ip (NZM mice [4]; G8 1.5 mg/kg 3× wk ip): p < 0.001 | p, serum IL-17A concentration vs G9 Vehicle 1× wk ip (NZM mice [4]; G8 1.5 mg/kg 3× wk ip): NS (NS = not significant (p > 0.05)) | p, serum IP-10 concentration vs G5 Bortezomib 0.3 mg/kg 1× wk ip (NZM mice [4]; G8 1.5 mg/kg 3× wk ip): NS (NS = not significant (p > 0.05)) | p, serum IP-10 concentration vs G6 Bortezomib 0.3 mg/kg 2× wk ip (NZM mice [4]; G8 1.5 mg/kg 3× wk ip): NS (NS = not significant (p > 0.05)) | p, serum IP-10 concentration vs G7 CTX 50 mg/kg 1× wk ip (NZM mice [4]; G8 1.5 mg/kg 3× wk ip): p < 0.001 | p, serum IP-10 concentration vs G9 Vehicle 1× wk ip (NZM mice [4]; G8 1.5 mg/kg 3× wk ip): p < 0.001 | p, serum MIG concentration vs G5 Bortezomib 0.3 mg/kg 1× wk ip (NZM mice [4]; G8 1.5 mg/kg 3× wk ip): NS (NS = not significant (p > 0.05)) | p, serum MIG concentration vs G6 Bortezomib 0.3 mg/kg 2× wk ip (NZM mice [4]; G8 1.5 mg/kg 3× wk ip): NS (NS = not significant (p > 0.05)) | p, serum MIG concentration vs G7 CTX 50 mg/kg 1× wk ip (NZM mice [4]; G8 1.5 mg/kg 3× wk ip): p < 0.001 | p, serum MIG concentration vs G9 Vehicle 1× wk ip (NZM mice [4]; G8 1.5 mg/kg 3× wk ip): NS (NS = not significant (p > 0.05)) | p, serum TNFα concentration vs G5 Bortezomib 0.3 mg/kg 1× wk ip (NZM mice [4]; G8 1.5 mg/kg 3× wk ip): NS (NS = not significant (p > 0.05)) | p, serum TNFα concentration vs G6 Bortezomib 0.3 mg/kg 2× wk ip (NZM mice [4]; G8 1.5 mg/kg 3× wk ip): p <0.01 | p, serum TNFα concentration vs G7 CTX 50 mg/kg 1× wk ip (NZM mice [4]; G8 1.5 mg/kg 3× wk ip): p <0.05 | p, serum TNFα concentration vs G9 Vehicle 1× wk ip (NZM mice [4]; G8 1.5 mg/kg 3× wk ip): NS (NS = not significant (p > 0.05)) | Serum CTx linker AUC, percent change vs vehicle (NZM mice [5]; G5 1.5 mg/kg ip, 3× wk): 21% | p, serum concentration of collagen type I cross-linker vs G5 Bortezomib 0.3 mg/kg 1× wk ip (NZM mice [5]; G8 1.5 mg/kg 3× wk ip): p < 0.05 | p, serum concentration of collagen type I cross-linker vs G6 Bortezomib 0.3 mg/kg 2× wk ip (NZM mice [5]; G8 1.5 mg/kg 3× wk ip): p < 0.01
